Experimental data: BigSolDB 2.1

O=C(O)/C=C/c1ccc(O)cc1
solubility (mole fraction)
Conditions	in acetone	in ethanol	in ethyl acetate	in isobutanol	in isopropanol	in methanol	in methyl acetate	in n-butanol	in n-propanol
293.15 K	0.0383	0.0409	0.0113	0.0193	0.0294	0.036	0.0146	0.0323	0.0334
298.15 K	0.0428	0.0456	0.0128	0.0226	0.0331	0.0395	0.0176	0.0371	0.0373
303.15 K	0.0468	0.0507	0.0144	0.0256	0.0373	0.0438	0.0205	0.0432	0.0429
308.15 K	0.0516	0.0552	0.0162	0.0295	0.0417	0.0484	0.0244	0.0503	0.0478
313.15 K	0.0574	0.0614	0.0183	0.0332	0.0462	0.053	0.0292	0.0582	0.0525
318.15 K	0.0619	0.0666	0.0205	0.0371	0.0511	0.0573	0.034	0.0647	0.0588
323.15 K	0.0685	0.0725	0.0229	0.0425	0.0562	0.063	0.0394	0.0731	0.0652
328.15 K	0.0756	0.0785	0.0256	0.0483	0.0617	0.0693	0.0457	0.0823	0.0714
333.15 K	0.0825	0.0861	0.0286	0.0535	0.067	0.0757	0.0519	0.0924	0.0791
